Reference: ChEMBL document CHEMBL1921760, “Design, synthesis and biological evaluation of 6-pyridylmethylaminopurines as CDK inhibitors” (Bioorg Med Chem, 2011)

Assays:
A2780 [1] = experiment: Growth inhibition of cisplatin-susceptible human A2780 cells after 96 hrs by sulforhodamine B assay; type: functional; conditions: A2780, 96 h
CH1 [2] = experiment: Growth inhibition of doxorubicin-resistant human CH1 cells after 96 hrs by sulforhodamine B assay; type: functional; conditions: CH1, 96 h
A2780 [3] = experiment: Growth inhibition of cisplatin-resistant human A2780 cells after 96 hrs by sulforhodamine B assay; type: functional; conditions: A2780, 96 h
[4] = Metabolic stability in mouse liver microsomes assessed as compound metabolized at 10 uM after 30 mins by LC-MS analysis; type: ADME, Microsome; conditions: read-out: Activity
HT-29 = experiment: Growth inhibition of human HT-29 cells after 96 hrs by sulforhodamine B assay; type: functional; conditions: HT-29, 96 h
[5] = molecular target: Cyclin-dependent kinase 1/cyclin B1 (Homo sapiens, UniProt P06493); experiment: Inhibition of CDK1/cyclin B; type: protein-complex assay
Chain of Cyclin-dependent kinase 1/cyclin B1 (P06493 whole entry): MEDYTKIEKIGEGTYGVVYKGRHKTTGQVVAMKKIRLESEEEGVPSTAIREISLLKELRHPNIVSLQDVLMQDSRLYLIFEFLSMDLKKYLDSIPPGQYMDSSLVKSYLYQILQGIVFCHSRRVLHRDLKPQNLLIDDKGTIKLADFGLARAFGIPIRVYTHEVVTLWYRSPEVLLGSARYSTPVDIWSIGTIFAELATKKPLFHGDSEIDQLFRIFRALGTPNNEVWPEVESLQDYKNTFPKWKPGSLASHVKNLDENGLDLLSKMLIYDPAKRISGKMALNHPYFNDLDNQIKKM
Chain of Cyclin-dependent kinase 1/cyclin B1 (P14635 whole entry, further chain): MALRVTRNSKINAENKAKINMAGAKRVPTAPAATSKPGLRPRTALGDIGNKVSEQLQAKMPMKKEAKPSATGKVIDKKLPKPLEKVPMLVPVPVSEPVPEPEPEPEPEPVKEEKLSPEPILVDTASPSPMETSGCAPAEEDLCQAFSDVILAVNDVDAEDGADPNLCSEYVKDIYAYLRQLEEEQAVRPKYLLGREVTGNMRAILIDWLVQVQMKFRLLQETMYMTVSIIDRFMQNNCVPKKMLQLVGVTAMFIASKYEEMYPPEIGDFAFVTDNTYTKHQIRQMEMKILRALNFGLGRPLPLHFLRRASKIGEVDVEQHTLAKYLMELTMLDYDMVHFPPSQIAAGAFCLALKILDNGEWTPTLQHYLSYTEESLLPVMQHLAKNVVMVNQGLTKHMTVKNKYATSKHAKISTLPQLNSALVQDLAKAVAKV

[6] = molecular target: Cyclin-dependent kinase 4/cyclin D1 (Homo sapiens, UniProt P11802); experiment: Inhibition of CDK4/cyclin D1; type: protein-complex assay
Chain of Cyclin-dependent kinase 4/cyclin D1 (P11802 whole entry): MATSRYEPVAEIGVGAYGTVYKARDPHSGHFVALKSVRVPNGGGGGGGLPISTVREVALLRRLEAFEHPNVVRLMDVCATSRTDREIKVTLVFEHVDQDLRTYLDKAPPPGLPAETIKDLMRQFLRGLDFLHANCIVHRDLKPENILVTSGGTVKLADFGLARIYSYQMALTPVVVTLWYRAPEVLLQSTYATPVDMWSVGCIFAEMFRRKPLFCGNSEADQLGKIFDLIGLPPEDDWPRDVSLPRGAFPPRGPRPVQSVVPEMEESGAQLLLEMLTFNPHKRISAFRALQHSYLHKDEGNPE
Chain of Cyclin-dependent kinase 4/cyclin D1 (P24385 whole entry, further chain): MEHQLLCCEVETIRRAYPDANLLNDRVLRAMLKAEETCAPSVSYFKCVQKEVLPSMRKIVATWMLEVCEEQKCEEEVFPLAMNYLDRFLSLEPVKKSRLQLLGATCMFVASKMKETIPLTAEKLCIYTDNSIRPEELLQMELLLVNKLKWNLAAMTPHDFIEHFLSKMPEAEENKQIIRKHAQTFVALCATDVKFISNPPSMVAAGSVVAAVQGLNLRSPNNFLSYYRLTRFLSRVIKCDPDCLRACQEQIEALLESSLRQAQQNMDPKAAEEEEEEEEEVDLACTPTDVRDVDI

CH1 [7] = experiment: Growth inhibition of doxorubicin-susceptible human CH1 cells after 96 hrs by sulforhodamine B assay; type: functional; conditions: CH1, 96 h
[8] = molecular target: Cyclin-dependent kinase 2/cyclin E1 (Homo sapiens, UniProt P24941); experiment: Inhibition of CDK2/cyclin E; type: protein-complex assay
[9] = molecular target: Cyclin-dependent kinase 7/ cyclin H (Homo sapiens, UniProt P50613); experiment: Inhibition of CDK7/cyclin H; type: protein-complex assay
Chain of Cyclin-dependent kinase 7/ cyclin H (P51946 whole entry): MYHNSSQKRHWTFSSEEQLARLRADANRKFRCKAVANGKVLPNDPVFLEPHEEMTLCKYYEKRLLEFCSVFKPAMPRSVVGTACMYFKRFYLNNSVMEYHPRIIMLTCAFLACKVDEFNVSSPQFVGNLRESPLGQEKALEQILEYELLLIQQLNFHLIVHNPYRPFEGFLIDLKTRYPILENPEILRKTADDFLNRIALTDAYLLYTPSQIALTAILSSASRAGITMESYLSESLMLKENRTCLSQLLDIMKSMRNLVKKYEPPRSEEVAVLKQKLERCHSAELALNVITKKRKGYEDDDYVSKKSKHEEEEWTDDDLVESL
Chain of Cyclin-dependent kinase 7/ cyclin H (P50613 whole entry): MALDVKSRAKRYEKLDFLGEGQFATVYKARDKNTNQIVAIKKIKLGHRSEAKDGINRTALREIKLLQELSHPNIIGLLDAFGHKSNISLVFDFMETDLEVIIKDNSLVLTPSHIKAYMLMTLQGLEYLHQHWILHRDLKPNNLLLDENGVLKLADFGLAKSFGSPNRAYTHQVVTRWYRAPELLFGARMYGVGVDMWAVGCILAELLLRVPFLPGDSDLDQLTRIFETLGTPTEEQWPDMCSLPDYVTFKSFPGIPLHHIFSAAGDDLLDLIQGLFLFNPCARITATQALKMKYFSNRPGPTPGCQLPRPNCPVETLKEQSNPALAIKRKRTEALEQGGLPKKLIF

[10] = molecular target: Mitogen-activated protein kinase 1 (Homo sapiens, UniProt P28482); experiment: Inhibition of ERK2
Chain of Mitogen-activated protein kinase 1 (P28482 whole entry): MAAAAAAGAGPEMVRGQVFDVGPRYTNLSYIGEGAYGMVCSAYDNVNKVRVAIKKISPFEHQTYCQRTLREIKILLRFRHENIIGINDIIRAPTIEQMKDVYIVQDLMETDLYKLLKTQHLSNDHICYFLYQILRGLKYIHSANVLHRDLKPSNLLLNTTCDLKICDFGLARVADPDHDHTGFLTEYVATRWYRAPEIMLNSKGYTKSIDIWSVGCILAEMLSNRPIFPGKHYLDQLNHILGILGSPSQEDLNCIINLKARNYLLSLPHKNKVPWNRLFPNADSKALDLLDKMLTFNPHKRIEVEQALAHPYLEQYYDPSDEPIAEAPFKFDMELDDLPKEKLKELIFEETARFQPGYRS

KM12 = experiment: Growth inhibition of human KM12 cells after 96 hrs by sulforhodamine B assay; type: functional; conditions: KM12, 96 h
HCT-116 = experiment: Growth inhibition of human HCT116 cells after 96 hrs by sulforhodamine B assay; type: functional; conditions: HCT-116, 96 h
[11] = Inhibition of PKA
[12] = Cmax in BALB/c mouse plasma at 50 mg/kg, iv after 24 hrs by LC-MS analysis; type: ADME, organism-based; set-up: dose 50 mg/kg, route intravenous
[13] = AUC in BALB/c mouse plasma at 50 mg/kg, iv after 24 hrs by LC-MS analysis; type: ADME, organism-based; set-up: time < 24 hr, dose 50 mg/kg, route intravenous
[14] = Volume of distribution in BALB/c mouse plasma at 50 mg/kg, iv after 24 hrs by LC-MS analysis; type: ADME, organism-based; set-up: dose 50 mg/kg, route intravenous
[15] = Half life in BALB/c mouse plasma at 50 mg/kg, iv by LC-MS analysis; type: ADME, organism-based; set-up: dose 50 mg/kg, route intravenous
[16] = Clearance in BALB/c mouse plasma at 50 mg/kg, iv after 24 hrs by LC-MS analysis; type: ADME, organism-based; set-up: dose 50 mg/kg, route intravenous
[17] = Solubility of the compound in water; type: physicochemical
[18] = Oral bioavailability in BALB/c mouse at 50 mg/kg by LC-MS analysis; type: ADME, organism-based; conditions: in vivo

Row | Structure (SMILES) | GI50 (A2780 [1]) [µM] | GI50 (A2780 [3]) [µM] | metabolised at 0.5 h, 10 µM [4] [%] | GI50 (HT-29) [µM] | IC50 [5] [µM] | IC50 [6] [µM] | IC50 [8] [µM] | IC50 [9] [µM] | IC50 [10] [µM] | GI50 (HCT-116) [µM] | IC50 [11] [µM] | GI50 (CH1 [2]) [µM] | GI50 (CH1 [7]) [µM] | GI50 (KM12) [µM] | further results
1 | CC[C@H](Nc1nc(NCc2ccccn2)c2ncn(C(C)C)c2n1)C(C)(C)O | 19 | 44 | 53 | > 50 | 24 | 20 | 0.31 | 4.3 | > 200 | 32 | > 200 | 26 | 42 | 38 | 
2 | CC[C@@H](Nc1nc(NCc2cccnc2)c2ncn(C(C)C)c2n1)C(O)C(C)(C)C (mixture of isomers) | 18 | 23 | 46 | 22 | 23 | 24 | 1 | 1.6 |  | 20 | > 200 | 23 | 23 | 19 | 
3 | CC[C@H](CO)Nc1nc(NCc2ccccc2)c2ncn(C(C)C)c2n1 [SELICICLIB] | 4.45 |  | 67 | 6.4 |  |  |  |  |  | 5.05 | > 50 | 5.4 | 3.25 |  | Cmax [12]: 93.7 µM; AUC at 24 h [13]: 53.4 µM·h; Vd [14]: 0.073 L; half-life [15]: 1.4 h; clearance [16]: 0.85 mL/min
4 | CC[C@H](Nc1nc(NCc2cccnc2)c2ncn(C(C)C)c2n1)[C@@H](C)O.O=C(O)C(F)(F)F |  |  |  |  |  |  |  |  |  |  |  |  |  |  | solubility ([17]; water, read-out: solubility): > 25 mg/mL
5 | CC[C@H](Nc1nc(NCc2ccccc2)c2ncn(C(C)C)c2n1)C(O)C(C)C (mixture of isomers) | 20 | 23 | 76 | 23 |  | 33 |  | 3 | 88 | 24 | 83 | 24 | 25 | 25 | 
6 | CC[C@H](Nc1nc(NCc2ccccc2)c2ncn(C(C)C)c2n1)C(O)C(C)(C)C (mixture of isomers) | 21.5 | 23 | 74 | 21.5 |  |  |  |  | > 200 | 27 | > 200 | 21.5 | 26 | 19 | 
7 | CC[C@H](Nc1nc(NCc2ccccn2)c2ncn(C(C)C)c2n1)C(O)C(C)(C)C (mixture of isomers) | 38 | > 50 | 97 | 28 | 200 |  |  |  |  | > 50 | > 200 | 47 | > 50 | 36 | 
8 | CC[C@@H](Nc1nc(NCc2ccccc2)c2ncn(C(C)C)c2n1)C(O)C(C)(C)C (mixture of isomers) | 18.5 | 23 | 79 | 14.5 |  | 200 |  |  | > 200 | 24 | 87 | 19 | 23 | 17 | 
9 | CC[C@@H](Nc1nc(NCc2cccnc2)c2ncn(C(C)C)c2n1)C(O)C(C)C (mixture of isomers) | 23 | 37 | 36 | 32 | 20 | 21 | 0.69 | 2.2 |  | 25 | > 200 | 25 | 30 | 31 | 
10 | CC[C@H](Nc1nc(NCc2cccnc2)c2ncn(C(C)C)c2n1)C(O)C(C)(C)C (mixture of isomers) | 18 | 22 | 50 | 22 | 21 | 13 | 0.39 | 3.5 |  | 24 | > 200 | 18.5 | 23 | 19 | 
11 | CC[C@H](Nc1nc(NCc2cccnc2)c2ncn(C(C)C)c2n1)C(O)C(C)C (mixture of isomers) | 19 | 26.5 | 62 | 26 | 22 | 31 | 1.1 | 3.5 |  | 22 | > 200 | 20.5 | 22 | 22 | 
12 | CC[C@@H](Nc1nc(NCc2cccnc2)c2ncn(C(C)C)c2n1)[C@H](C)O |  |  |  |  |  |  |  |  |  |  |  |  |  |  | Cmax [12]: 377 µM; AUC at 24 h [13]: 158 µM·h; Vd [14]: 0.084 L; bioavailability [18]: 15%; half-life [15]: 1.7 h; clearance [16]: 0.283 mL/min; solubility ([17]; buffer): soluble

Second part, led by results:

Row | GI50 (A2780 [1]) [µM] | GI50 (A2780 [3]) [µM] | metabolised at 0.5 h, 10 µM [4] [%] | GI50 (HT-29) [µM] | IC50 [5] [µM] | IC50 [6] [µM] | IC50 [8] [µM] | IC50 [9] [µM] | IC50 [10] [µM] | GI50 (HCT-116) [µM] | IC50 [11] [µM] | Structure (SMILES) | GI50 (CH1 [2]) [µM] | GI50 (CH1 [7]) [µM] | GI50 (KM12) [µM] | further results
13 | 15 | 27 | 97 | 42 | 39 | 48 | 0.52 | 0.55 | 73 | 18 | > 200 | CC[C@@H](Nc1nc(NCc2ccccn2)c2ncn(C(C)C)c2n1)C(C)O (mixture of isomers) | 20 | 20 | 37 | 
14 | 6.2 | 19 | 30 | 20 | 12 | 25 | 0.22 | 1.1 |  | 10 | > 200 | CCC(O)[C@@H](CC)Nc1nc(NCc2cccnc2)c2ncn(C(C)C)c2n1 (mixture of isomers) | 14.5 | 18 | 13.5 | 
15 | 5.2 | 6.6 | 54 | 5.8 |  | 20 |  | 0.18 | 24 | 4.5 | > 50 | CC[C@H](CO)Nc1nc(NCc2cccnc2)c2ncn(C(C)C)c2n1 | 16.5 | 4.8 | 5.5 | 
16 | 10 | 17 | 67 | 20 | 8.9 | 18 | 0.05 | 2.6 | 77 | 10 | > 200 | CC[C@H](Nc1nc(NCc2ccccn2)c2ncn(C(C)C)c2n1)C(C)O (mixture of isomers) | 15.5 | 21 | 23 | 
17 | 3.1 | 4.4 | 10 | 4.7 | 4.9 |  |  |  | 23 | 2.5 | > 200 | CC[C@@H](Nc1nc(NCc2cccnc2)c2ncn(C(C)C)c2n1)C(C)O (mixture of isomers) | 5.2 | 4.5 | 4.7 | 
18 | 3.3 | 3.4 | 67 | 4.9 |  | 9 |  | 0.69 | 29 | 1.45 | > 50 | CC[C@H](Nc1nc(NCc2ccccc2)c2ncn(C(C)C)c2n1)C(C)O (mixture of isomers) | 1.28 | 1.75 | 1.9 | 
19 | 6.4 | 3.8 | 91 | 18 |  | 23 |  | 0.39 | 43 | 5.4 | > 50 | CC[C@@H](Nc1nc(NCc2ccccc2)c2ncn(C(C)C)c2n1)C(C)O (mixture of isomers) | 4.6 | 5 | 5.4 | 
20 | 4.3 | 12.5 | 27 | 12.5 | 13 | 11 | 0.11 | 1.5 |  | 5.4 | > 200 | CCC(O)[C@H](CC)Nc1nc(NCc2cccnc2)c2ncn(C(C)C)c2n1 (mixture of isomers) | 9.4 | 11 | 8.2 | 
21 | 0.78 | 1 | 33 | 1.1 | 2.2 |  |  |  | 20 | 0.76 | > 200 | CC[C@H](Nc1nc(NCc2cccnc2)c2ncn(C(C)C)c2n1)C(C)O (mixture of isomers) | 1.5 | 0.92 | 1.15 | 
22 | 17 | 21 | 83 | 13 |  |  |  |  | > 200 | 22 | 92 | CC[C@@H](Nc1nc(NCc2ccccc2)c2ncn(C(C)C)c2n1)C(O)C(C)C (mixture of isomers) | 19 | 23 | 27 | 
